Assay results: ChEMBL document CHEMBL4396865, “Current advances of triazole alcohols derived from fluconazole: Design, in vitro and in silico studies” (2019)
Values after ≈ are worked out from the molar mass of the structure shown.

Experiments:
Format in all cases: functional
[1] = system: Cryptococcus neoformans; assay: Antifungal activity against Cryptococcus neoformans; settings: Cryptococcus neoformans
[2] = system: Pichia kudriavzevii; assay: Antifungal activity against Candida krusei
[3] = system: Candida parapsilosis; assay: Antifungal activity against Candida parapsilosis; settings: Lodderomyces parapsilosis
[4] = system: Candida albicans; assay: Antifungal activity against Candida albicans; settings: Candida albicans
[5] = system: Candida tropicalis; assay: Antifungal activity against Candida tropicalis; settings: Candida tropicalis
[6] = system: Fonsecaea compacta; assay: Antifungal activity against Fonsecaea compacta after 24 hrs by microbroth dilution method
[7] = system: Trichophyton rubrum; assay: Antifungal activity against Trichophyton rubrum after 24 hrs by microbroth dilution method
[8] = system: Cryptococcus neoformans; assay: Potency index, ratio of fluconazole MIC to test compound MIC for activity against Cryptococcus neoformans ATCC 32609
[9] = system: Trichophyton rubrum; assay: Potency index, ratio of fluconazole MIC to test compound MIC for Trichophyton rubrum
[10] = system: Candida tropicalis; assay: Potency index, ratio of fluconazole MIC to test compound MIC for Candida tropicalis
[11] = system: Candida albicans; assay: Potency index, ratio of fluconazole MIC to test compound MIC for Candida albicans ATCC 76615
[12] = system: Candida tropicalis; assay: Antifungal activity against Candida tropicalis after 24 hrs by microbroth dilution method
[13] = system: Fonsecaea compacta; assay: Potency index, ratio of fluconazole MIC to test compound MIC for Fonsecaea compacta
[14] = system: Microsporum canis; assay: Antifungal activity against Microsporum canis after 24 hrs by microbroth dilution method
[15] = system: Microsporum canis; assay: Potency index, ratio of fluconazole MIC to test compound MIC for Microsporum canis
[16] = system: Aspergillus fumigatus; assay: Antifungal activity against Aspergillus fumigatus after 24 hrs by microbroth dilution method
[17] = system: Aspergillus fumigatus; assay: Potency index, ratio of fluconazole MIC to test compound MIC for Aspergillus fumigatus
[18] = system: Candida parapsilosis; assay: Antifungal activity against fluconalzole-susceptible Candida parapsilosis after 24 hrs; settings: Lodderomyces parapsilosis
[19] = system: Candida albicans; assay: Antifungal activity against fluconalzole-susceptible Candida albicans after 24 hrs
[20] = system: Aspergillus fumigatus; assay: Antifungal activity against Aspergillus fumigatus; settings: Aspergillus fumigatus; read-out: MIC

Row | Compound | MIC80 [1] | MIC80 [2] | MIC80 [3] | MIC80 [4] | MIC80 [5] | MIC80 [6] | MIC80 [7] | MIC80 [12] | MIC80 [14] | MIC80 [16] | Ratio [8] | Ratio [9] | Ratio [10] | Ratio [11] | Ratio [13] | Ratio [15] | Ratio [17] | other results
1 | CN(CC(=O)Nc1ccc(Cl)cc1)CC(O)(Cn1cncn1)c1ccc(F)cc1F (stereo not given) | 0.0156 mg/L (≈ 0.0358 µM) | 0.25 to 1 mg/L (≈ 0.574 to 2.29 µM) | 0.25 to 1 mg/L (≈ 0.574 to 2.29 µM) | 0.0156 mg/L (≈ 0.0358 µM) | 0.25 to 1 mg/L (≈ 0.574 to 2.29 µM) |  |  |  |  |  |  |  |  |  |  |  |  | 
2 | CN(CC(=O)Nc1ccc(Br)cc1)CC(O)(Cn1cncn1)c1ccc(F)cc1F (stereo not given) | 0.0156 mg/L (≈ 0.0325 µM) | 0.25 to 1 mg/L (≈ 0.52 to 2.08 µM) | 0.25 to 1 mg/L (≈ 0.52 to 2.08 µM) | 0.0156 mg/L (≈ 0.0325 µM) | 0.25 to 1 mg/L (≈ 0.52 to 2.08 µM) |  |  |  |  |  |  |  |  |  |  |  |  | 
3 | Cc1ccc(CN(CC(O)(Cn2cncn2)c2ccc(F)cc2F)C2CC2)cc1 (stereo not given) |  |  |  |  |  | 0.125 mg/L (≈ 0.314 µM) | 0.125 mg/L (≈ 0.314 µM) | 0.125 mg/L (≈ 0.314 µM) | 0.125 mg/L (≈ 0.314 µM) | 0.125 mg/L (≈ 0.314 µM) | 4 | 4 | 4 | 4 | 4 | 4 | 4 | 
4 | OC(Cn1cncn1)(Cn1cnc(SCc2ccccc2)n1)c1ccc(F)cc1F (stereo not given) |  |  |  |  |  |  |  |  |  |  |  |  |  |  |  |  |  | MIC [18]: 0.063 to 1 mg/L (≈ 0.147 to 2.33 µM); MIC [19]: 0.063 to 1 mg/L (≈ 0.147 to 2.33 µM)
5 | COc1cccc(NC(=O)CN(C)CC(O)(Cn2cncn2)c2ccc(F)cc2F)c1 (stereo not given) | 0.0156 mg/L (≈ 0.0362 µM) | 0.25 to 1 mg/L (≈ 0.579 to 2.32 µM) | 0.25 to 1 mg/L (≈ 0.579 to 2.32 µM) | 0.0156 mg/L (≈ 0.0362 µM) | 0.25 to 1 mg/L (≈ 0.579 to 2.32 µM) |  |  |  |  |  |  |  |  |  |  |  |  | 
6 | OC(Cn1cncn1)(Cn1cnc(SCc2ccc(F)cc2)n1)c1ccc(F)cc1F (stereo not given) |  |  |  |  |  |  |  |  |  |  |  |  |  |  |  |  |  | MIC [18]: 0.063 to 1 mg/L (≈ 0.141 to 2.24 µM); MIC [19]: 0.063 to 1 mg/L (≈ 0.141 to 2.24 µM)
7 | Cc1ccc(NC(=O)CN(C)CC(O)(Cn2cncn2)c2ccc(F)cc2F)c(C)c1 (stereo not given) | 0.0156 mg/L (≈ 0.0363 µM) | 0.25 to 1 mg/L (≈ 0.582 to 2.33 µM) | 0.25 to 1 mg/L (≈ 0.582 to 2.33 µM) | 0.0156 mg/L (≈ 0.0363 µM) | 0.25 to 1 mg/L (≈ 0.582 to 2.33 µM) |  |  |  |  |  |  |  |  |  |  |  |  | 
8 | CN(CC(=O)Nc1cc(Cl)ccc1Cl)CC(O)(Cn1cncn1)c1ccc(F)cc1F (stereo not given) | 0.0156 mg/L (≈ 0.0332 µM) | 0.25 to 1 mg/L (≈ 0.532 to 2.13 µM) | 0.25 to 1 mg/L (≈ 0.532 to 2.13 µM) | 0.0156 mg/L (≈ 0.0332 µM) | 0.25 to 1 mg/L (≈ 0.532 to 2.13 µM) |  |  |  |  |  |  |  |  |  |  |  |  | 
9 | CCCCOc1ccccc1N1CCN(CCc2nnn(CC(O)(Cn3cncn3)c3ccc(F)cc3F)n2)CC1 (stereo not given) |  |  |  |  |  |  |  |  |  |  |  |  |  |  |  |  |  | MIC ([1]; read-out: MIC): 1 to 8 mg/L (≈ 1.76 to 14.1 µM); MIC [2]: 1 to 8 mg/L (≈ 1.76 to 14.1 µM); MIC [20]: 1 to 8 mg/L (≈ 1.76 to 14.1 µM); MIC ([4]; read-out: MIC): 1 to 8 mg/L (≈ 1.76 to 14.1 µM); MIC ([5]; read-out: MIC): 1 to 8 mg/L (≈ 1.76 to 14.1 µM)
10 | OC(CN(Cc1ccc(Cl)cc1)C1CC1)(Cn1cncn1)c1ccc(F)cc1F (stereo not given) |  |  |  |  |  | 0.125 mg/L (≈ 0.298 µM) | 0.125 mg/L (≈ 0.298 µM) | 0.125 mg/L (≈ 0.298 µM) | 0.125 mg/L (≈ 0.298 µM) | 0.125 mg/L (≈ 0.298 µM) | 4 | 4 | 4 | 4 | 4 | 4 | 4 | 
11 | CN(CC(=O)Nc1ccc(Cl)c(Cl)c1)CC(O)(Cn1cncn1)c1ccc(F)cc1F (stereo not given) | 0.0156 mg/L (≈ 0.0332 µM) | 0.25 to 1 mg/L (≈ 0.532 to 2.13 µM) | 0.25 to 1 mg/L (≈ 0.532 to 2.13 µM) | 0.0156 mg/L (≈ 0.0332 µM) | 0.25 to 1 mg/L (≈ 0.532 to 2.13 µM) |  |  |  |  |  |  |  |  |  |  |  |  | 
12 | OC(Cn1cncn1)(Cn1cnc(SCc2cccc(F)c2)n1)c1ccc(F)cc1F (stereo not given) |  |  |  |  |  |  |  |  |  |  |  |  |  |  |  |  |  | MIC [18]: 0.063 to 1 mg/L (≈ 0.141 to 2.24 µM); MIC [19]: 0.063 to 1 mg/L (≈ 0.141 to 2.24 µM)
13 | OC(Cn1cncn1)(Cn1cnc(SCc2ccc(Br)cc2)n1)c1ccc(F)cc1F (stereo not given) |  |  |  |  |  |  |  |  |  |  |  |  |  |  |  |  |  | MIC [18]: 0.063 to 1 mg/L (≈ 0.124 to 1.97 µM); MIC [19]: 0.063 to 1 mg/L (≈ 0.124 to 1.97 µM)
14 | OC(CN(Cc1ccc(Br)cc1)C1CC1)(Cn1cncn1)c1ccc(F)cc1F (stereo not given) |  |  |  |  |  | 0.125 mg/L (≈ 0.27 µM) | 0.125 mg/L (≈ 0.27 µM) | 0.125 mg/L (≈ 0.27 µM) | 0.125 mg/L (≈ 0.27 µM) | 0.125 mg/L (≈ 0.27 µM) | 4 | 4 | 4 | 4 | 4 | 4 | 4 | 

Continued, in another order:

Row | MIC80 [1] | MIC80 [2] | MIC80 [3] | MIC80 [4] | MIC80 [5] | MIC80 [6] | MIC80 [7] | MIC80 [12] | MIC80 [14] | MIC80 [16] | Compound | Ratio [8] | Ratio [9] | Ratio [10] | Ratio [11] | Ratio [13] | Ratio [15] | Ratio [17] | other results
15 | 0.0156 mg/L (≈ 0.0321 µM) | 0.25 to 1 mg/L (≈ 0.515 to 2.06 µM) | 0.25 to 1 mg/L (≈ 0.515 to 2.06 µM) | 0.0156 mg/L (≈ 0.0321 µM) | 0.25 to 1 mg/L (≈ 0.515 to 2.06 µM) |  |  |  |  |  | CN(CC(=O)Nc1ccc(OC(F)(F)F)cc1)CC(O)(Cn1cncn1)c1ccc(F)cc1F (stereo not given) |  |  |  |  |  |  |  | 
16 |  |  |  |  |  | 0.125 mg/L (≈ 0.311 µM) | 0.125 mg/L (≈ 0.311 µM) | 0.125 mg/L (≈ 0.311 µM) | 0.125 mg/L (≈ 0.311 µM) | 0.125 mg/L (≈ 0.311 µM) | OC(CN(Cc1ccc(F)cc1)C1CC1)(Cn1cncn1)c1ccc(F)cc1F (stereo not given) | 4 | 4 | 4 | 4 | 4 | 4 | 4 | 
17 |  |  |  |  |  | 0.125 mg/L (≈ 0.298 µM) | 0.125 mg/L (≈ 0.298 µM) | 0.125 mg/L (≈ 0.298 µM) | 0.125 mg/L (≈ 0.298 µM) | 0.125 mg/L (≈ 0.298 µM) | OC(CN(Cc1ccccc1Cl)C1CC1)(Cn1cncn1)c1ccc(F)cc1F (stereo not given) | 4 | 4 | 4 | 4 | 4 | 4 | 4 | 
18 |  |  |  |  |  | 0.125 mg/L (≈ 0.284 µM) | 0.125 mg/L (≈ 0.284 µM) | 0.125 mg/L (≈ 0.284 µM) | 0.125 mg/L (≈ 0.284 µM) | 0.125 mg/L (≈ 0.284 µM) | CC(C)(C)c1ccc(CN(CC(O)(Cn2cncn2)c2ccc(F)cc2F)C2CC2)cc1 (stereo not given) | 4 | 4 | 4 | 4 | 4 | 4 | 4 | 
19 | 0.0156 mg/L (≈ 0.0362 µM) | 0.25 to 1 mg/L (≈ 0.579 to 2.32 µM) | 0.25 to 1 mg/L (≈ 0.579 to 2.32 µM) | 0.0156 mg/L (≈ 0.0362 µM) | 0.25 to 1 mg/L (≈ 0.579 to 2.32 µM) |  |  |  |  |  | COc1ccccc1NC(=O)CN(C)CC(O)(Cn1cncn1)c1ccc(F)cc1F (stereo not given) |  |  |  |  |  |  |  | 
